The text below walks through data of ChEMBL document CHEMBL1201862, “PubChem BioAssay data set” (2004).

Among the test systems are SF-268; KM-20L2; EKVX; NCI-H23; SF-539; Malme-3M; OVCAR-4; COLO 205; MOLT-4; HOP-92; HT-29; OVCAR-3; SNB-19; OVCAR-5; NCI-H226; UACC-257; HCC 2998; KM12; HCT-15; SR.
What all share (assay): NCI-60 cell line screen, 48 h

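Five concentrations, 48 hours, 96-well plates. The concentration for 50% growth inhibition is given as GI50.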 Activity calls are given as the source filed them. Rule as the data show it: active = GI50 up to about 1.1 µM and inactive = higher. Where only a bound is given, the exact number is not on record here.

Take `CC(=O)Nc1ccc(C(=O)NN2C(=O)C(Cl)C2c2ccccc2)cc1` (centres undefined): the GI50 in the test with SF-268, in the test on KM-20L2, in the test with EKVX, in the test with NCI-H23, with SF-539 and in the test on Malme-3M was > 100 µM (inactive) each time. The GI50 with OVCAR-4, with COLO 205, in the test on MOLT-4, in the test with HOP-92, in the test on HT-29 and with OVCAR-3 was > 100 µM (inactive) throughout. For the same compound, the GI50 in the test with SNB-19, in the test with OVCAR-5, in the test with NCI-H226 and with UACC-257 was > 100 µM (inactive) in each case.
With `CSC(C1c2ccccc2N(c2ccc(C)cc2)c2[nH]c(=O)n(C)c(=O)c21)S(=O)(=O)c1ccc(C)cc1` (centres undefined), the GI50 in the test with SF-268, in the test with KM-20L2, in the test with EKVX, in the test on NCI-H23, in the test on SF-539 and in the test on Malme-3M was > 100 µM (inactive) throughout. The GI50 was 97.7 µM (inactive) in the test on OVCAR-4; > 100 µM (inactive) in the test on COLO 205; > 100 µM (inactive) with HCC 2998; > 100 µM (inactive) in the test on MOLT-4; > 100 µM (inactive) with HOP-92; > 100 µM (inactive) in the test with HT-29. In addition, the GI50 in the test on OVCAR-3, in the test on SNB-19, with OVCAR-5, in the test on NCI-H226 and in the test with UACC-257 was > 100 µM (inactive) in each case.
Regarding `C[C@@]12[Se]c3ccccc3[C@]1(C)[Se]c1ccccc12`, the GI50 is > 100 µM (inactive) in the test on SF-268; > 100 µM (inactive) in the test with KM-20L2; > 100 µM (inactive) with EKVX; > 100 µM (inactive) in the test on NCI-H23; > 100 µM (inactive) in the test with Malme-3M; 68.2 µM (inactive) with OVCAR-4. Moreover, the GI50 was 3.73 µM (inactive) in the test with COLO 205; 6.47 µM (inactive) in the test with HCC 2998; 4.79 µM (inactive) with HOP-92; 3.79 µM (inactive) in the test on HT-29; > 100 µM (inactive) in the test on OVCAR-3; 6.95 µM (inactive) in the test with KM12. For the same compound, the GI50 in the test on OVCAR-5 and in the test with NCI-H226 was > 100 µM (inactive) each time.
With `C[N+](C)(C)CC1CCCCC1=O` (centres undefined), the GI50 in the test with KM-20L2 is 2 µM (inactive); in the test on EKVX it was 19.9 µM (inactive); in the test with NCI-H23, 22.5 µM (inactive); in the test with SF-539 it was > 100 µM (inactive); with Malme-3M it was 19.6 µM (inactive); in the test on HCT-15, 14.1 µM. For the same compound, the GI50 in the test with COLO 205 was 22.6 µM (inactive); in the test on MOLT-4, 12.4 µM (inactive); in the test on HT-29, 19.6 µM (inactive); with OVCAR-3, 19.1 µM (inactive); with KM12, 58.2 µM (inactive); in the test with SNB-19, > 100 µM (inactive). Moreover, the GI50 was > 100 µM (inactive) in the test with NCI-H226 and 14.3 µM (inactive) in the test on UACC-257.
For the compound `O=C(/C=C/c1ccccc1)CC(=O)CCC(=O)Nc1ccc(Cl)cc1`, the GI50 was 60.3 µM (inactive) with SF-268; 9.73 µM (inactive) in the test on KM-20L2; > 100 µM (inactive) in the test with EKVX; > 100 µM (inactive) with NCI-H23; > 100 µM (inactive) with SF-539; > 100 µM (inactive) in the test with Malme-3M. Further, the GI50 in the test with HCT-15 was more than 100 µM; in the test on OVCAR-4, > 100 µM (inactive); in the test with COLO 205, > 100 µM (inactive); with HCC 2998 it was 80.7 µM (inactive); in the test with MOLT-4, > 100 µM (inactive); in the test on HT-29 it was 88.9 µM (inactive). Further, the GI50 in the test with OVCAR-3 is > 100 µM (inactive); in the test on KM12 it was 44.4 µM (inactive); in the test with SNB-19, > 100 µM (inactive); in the test on OVCAR-5, > 100 µM (inactive); in the test on NCI-H226 it was > 100 µM (inactive); in the test on UACC-257 it was 77.3 µM (inactive).
With `CC(=O)O[C@H]1C(=O)[C@@]2(C)[C@H]([C@H](OC(=O)c3ccoc3)[C@]3(O)C[C@H](OC(=O)[C@H](O)[C@@H](NC(=O)c4ccccc4)c4ccccc4)C(C)=C1C3(C)C)[C@]1(OC(C)=O)CO[C@@H]1C[C@@H]2O`, the GI50 is 0.0583 µM (active) in the test with SF-268; > 9.59 µM (inactive) with EKVX; > 12.5 µM (inactive) in the test on NCI-H23; 0.0286 µM (active) with SF-539; 0.0316 µM (active) in the test with Malme-3M; 4.24 µM in the test on HCT-15. For the same compound, the GI50 with OVCAR-4 was > 12.5 µM (inactive); in the test on COLO 205 it was 0.0515 µM (active); in the test with HCC 2998, 0.116 µM (active); with SR, 0.026 µM (active); in the test with MOLT-4, 0.045 µM (active); in the test on HOP-92, > 12.5 µM (inactive). Moreover, the GI50 in the test on HT-29 was 0.0307 µM (active); in the test with OVCAR-3, 0.0296 µM (active); in the test on KM12, 0.0344 µM (active); in the test with SNB-19, 0.145 µM (active); with OVCAR-5, 0.0953 µM (active); with NCI-H226 it was 0.11 µM (active). In the test with UACC-257, the GI50 is 0.538 µM (active).
Regarding `CN1CCN(c2nc(N)c(Br)c(Cl)n2)CC1`, the GI50 was > 100 µM (inactive) in the test with SF-268; > 100 µM (inactive) in the test with KM-20L2; > 100 µM (inactive) in the test on EKVX; > 100 µM (inactive) with NCI-H23; > 100 µM (inactive) in the test on Malme-3M; more than 100 µM in the test on HCT-15. In addition, the GI50 is > 100 µM (inactive) in the test on OVCAR-4; > 100 µM (inactive) in the test with COLO 205; > 100 µM (inactive) in the test with HCC 2998; > 100 µM (inactive) in the test with MOLT-4; 54.3 µM (inactive) in the test with HOP-92; > 100 µM (inactive) with OVCAR-3. For the same compound, the GI50 in the test with KM12, in the test with SNB-19, with OVCAR-5 and in the test on UACC-257 was > 100 µM (inactive) throughout.
As for `O=C(O)C1(Cc2ccccc2)Cc2cc3c(cc2C1)CCC3`, the GI50 with SF-268 is 78.9 µM (inactive); with EKVX, 54.2 µM (inactive); in the test on NCI-H23, > 100 µM (inactive); in the test on SF-539, > 100 µM (inactive); in the test with Malme-3M, > 100 µM (inactive); in the test with HCT-15 it was 52.6 µM. Further, the GI50 with OVCAR-4 is > 100 µM (inactive); with COLO 205, > 100 µM (inactive); in the test on HCC 2998, 58.2 µM (inactive); in the test on SR it was > 100 µM (inactive); in the test on MOLT-4, > 100 µM (inactive); in the test on HOP-92, 21 µM (inactive). In addition, the GI50 is > 100 µM (inactive) in the test on HT-29; > 100 µM (inactive) in the test on OVCAR-3; 68.4 µM (inactive) in the test with KM12; > 100 µM (inactive) in the test on SNB-19; > 100 µM (inactive) with OVCAR-5; > 100 µM (inactive) in the test on NCI-H226. Also, the GI50 in the test with UACC-257 was > 100 µM (inactive).
Turning to `O=C(c1c(Cl)cc(Cl)cc1Cl)N(Cc1cccnc1)C(=S)N(Cc1cccnc1)C(=O)c1c(Cl)cc(Cl)cc1Cl`, the GI50 was 6.97 µM (inactive) with SF-268; 15.5 µM (inactive) in the test on EKVX; 8.67 µM (inactive) in the test on NCI-H23; 11 µM (inactive) in the test on SF-539; 19.5 µM (inactive) in the test with Malme-3M; 3.05 µM in the test on HCT-15. The GI50 was 2.19 µM (inactive) in the test with OVCAR-4; 4.73 µM (inactive) in the test with COLO 205; 3.12 µM (inactive) with HCC 2998; 6.56 µM (inactive) in the test on SR; 6.84 µM (inactive) in the test with MOLT-4; 3.25 µM (inactive) in the test with HOP-92. The GI50 in the test with HT-29 was 2.97 µM (inactive); in the test on OVCAR-3, 3.77 µM (inactive); with KM12, 2.97 µM (inactive); with SNB-19, 20.2 µM (inactive); in the test with OVCAR-5, 18.5 µM (inactive); in the test on NCI-H226, 19 µM (inactive). Moreover, the GI50 in the test on UACC-257 was 7.26 µM (inactive).
Regarding `OC1c2[nH]c3ccccc3c2CCN2CCCCC12` (centres undefined), the GI50 in the test with SF-268 was > 100 µM (inactive); in the test on EKVX, > 100 µM (inactive); in the test on NCI-H23 it was > 100 µM (inactive); in the test with SF-539, > 100 µM (inactive); with Malme-3M, > 100 µM (inactive); in the test on HCT-15, more than 100 µM. Also, the GI50 in the test on OVCAR-4 is > 100 µM (inactive); in the test on COLO 205, > 100 µM (inactive); in the test on HCC 2998, 75.3 µM (inactive); in the test on SR it was > 100 µM (inactive); with MOLT-4, > 100 µM (inactive); in the test with HOP-92 it was 51.1 µM (inactive). Further, the GI50 in the test with HT-29, in the test with OVCAR-3, with KM12, with SNB-19, in the test on OVCAR-5 and with NCI-H226 was > 100 µM (inactive) throughout. Further, the GI50 with UACC-257 is > 100 µM (inactive).
For `COC(=O)C1=C(C(=O)OC)C23CC1C1C(C(=O)OC)=C(C(=O)OC)C12C1C=CC3C2C(=O)OC(=O)C21` (centres undefined), the GI50 is 48.3 µM (inactive) in the test on SF-268; > 100 µM (inactive) in the test on KM-20L2; > 100 µM (inactive) in the test with EKVX; 37.8 µM (inactive) with NCI-H23; 23.7 µM (inactive) in the test with SF-539; 44.5 µM (inactive) in the test with Malme-3M. Also, the GI50 in the test with HCT-15 was 42.1 µM; with OVCAR-4, 39.4 µM (inactive); in the test with COLO 205, 28.3 µM (inactive); in the test with HCC 2998, 66.7 µM (inactive); in the test with MOLT-4 it was 38.6 µM (inactive); in the test on HOP-92, 25.3 µM (inactive). Also, the GI50 with HT-29 is 68.7 µM (inactive); in the test on OVCAR-3, 3.72 µM (inactive); with KM12, 31 µM (inactive); with SNB-19 it was 62.1 µM (inactive); with OVCAR-5 it was > 100 µM (inactive); with UACC-257, 45.2 µM (inactive).
